From patent US20130336889A1, “NANOPARTICLE AND METHOD FOR DETECTING OR TREATING A TUMOR USING THE SAME” (NATIONAL TAIWAN UNIVERSITY, priority 2012, published 2013)

What was measured:
[1] = Absorbance spectra (UV-vis); format: physicochemical
HCT-116 cells = test: Cytotoxicity by MTT assay without or with NIR irradiation; format: cell-based, human; conditions: 2.5 μg/mL
Procedure: Cell viability was determined with the MTT assay and a scanning multiwell ELISA reader (Microplate Autoreader EL311, Bio-Tek Instruments Inc., Winooski, Vt., USA). The fraction of live cells was calculated by dividing the mean optical density obtained from treated cells by the mean optical density from untreated control cells.

## CCCN1C(=CC=C2CCCC(C=CC3=[N+](CCC)c4ccccc4C3(C)C)=C2Cl)C(C)(C)c2ccccc21.[I-] [free IR-780 iodide, IR-780 iodide]
[1]; IR-780 dye diluted in THF, IR-780 micelles in PBS
  maximum wavelength (λmax) of absorption: about 795 nm
[1]; aggregated in aqueous buffer, broad and blue-shifted
  λmax of absorption peak: 775 nm
HCT-116 cells; 808 nm 0.6 W/cm^2 NIR irradiation 10 min
  excess cells killed: 0.3%
HCT-116 cells; 808 nm 0.6 W/cm^2 NIR irradiation 20 min
  excess cells killed: 26.8%
